Converted amounts (≈) assume the structure as drawn.
Tests used:
Rho kinase (ROCK) = conditions: cited from earlier work
hESC (HES-2) [1] = assay: Pluripotent marker expression in HES-2 on matrix free microcarriers with ROCK inhibitors; format: cell-based, human; conditions: for expression of pluripotent marker Tra-1-60 / expression of pluripotent marker Oct4: DE53
Protocol: (§1) Briefly, expression levels of extracellular antigens TRA-1-60 and intracellular transcription factor, Oct-4 in hESC populations are assessed by immunofluorescence using flow cytometry. Cells are harvested as single cell suspensions using trypsin or trypLE express, filtered through a 40 μm sieve (BD) fixed, permeabilised (Caltag Laboratories) and incubated with primary antibodies to TRA-1-60 (1:50 dilution, Chemicon, MAB4360/4381) and to Oct-4 (1:20 dilution, Santa Cruz).
(§2) Cells are then washed with 1% BSA/PBS, and incubated in the dark with a 1:500 dilution of goat α-mouse antibody FITC-conjugated (DAKO). After incubation, the cells are again washed and resuspended in 1% BSA/PBS for analysis on a FACScan (Becton Dickinson FACS Calibur). All incubations are performed at room temperature for 15 min.
A range of ROCK inhibitors (at 10 μM) were tested for their ability to allow hESC (HES-2) cell culture on matrix free cellulose DE53 microcarriers. These included fasudil, hydroxyfasudil and […] and were compared to a control (DE53 microcarriers coated in Matrigel).

hESC [2] = assay: hESC growth and passaging on uncoated microcarriers without Matrigel with ROCK inhibitor; format: cell-based, human
Protocol: Cells suspension obtained either from dispersed 2D colony culture or directly from liquid nitrogen storage (200×200 μm tissue obtained from 2D colony culture or as cell-microcarriers aggregates) are seeded at concentrations of 0.1-0.3×10^6/ml on microcarrier suspension (4 mg/ml). […] The media used are either MEF-CM or defined media. Medium is changed daily. The cultures are passaged weekly following either enzymatic treatment with collagenase or trypLE or following mechanical dissociating by repeated pipetting at a split ratio of 1:2 to 1:10. Replating of microcarrier cultures to 2D colony culture is done by placing confluent cell-microcarrier aggregates on Matrigel coated 6 cm tissue culture petridish with 8 mls of media, and culturing the cells for 7 days. Seeding of hESC on DE53, QA52, Tosoh, Cytodex 1 and Cytodex 3 microcarriers hESC were seeded on uncoated microcarriers and passaged weekly following the protocol of Example 3 and that of Oh et al., 2009 (Long term microcarrier suspension cultures of human embryonic stem cells, Stem Cell Research (2009)). All chemicals were purchased from Calbiochem. All inhibitors were diluted to their final working concentration in conditioned media prior to feeding hESC on microcarriers.

hESC [3] = assay: FACS of pluripotent markers in hESC on microcarriers; format: cell-based, human
Protocol: Characterisation was performed according to our recent paper by Oh et al., 2009 (Long term microcarrier suspension cultures of human embryonic stem cells, Stem Cell Research (2009)).
as §1, §2

iPS IMR90 cells [4] = assay: Human iPS cell growth on uncoated DE53 microcarriers with ROCK inhibitor; format: cell-based; conditions: uncoated DE53, mTeSR1, 10 μM daily, 12 passages
Protocol: (§3) iPS IMR90 cells (1.6×10^5 cells/ml) were cultured in wells of a 6-well plate with 20 mg of uncoated DE53, 5 ml of serum free media mTeSR1, 4 μl of ROCK inhibitor (Y27632) [10 μM]. 80% media refreshment and addition of inhibitor was carried out daily.

iPS IMR90 cells [5] = assay: Pluripotent marker expression in human iPS cells on DE53 microcarriers; format: cell-based; conditions: uncoated DE53, mTeSR1, 10 μM daily, 12 passages
Protocol: as §1, §2, §3

hESC (HES-2) [6] = assay: Pluripotent marker expression in HES-2 on matrix free microcarriers with ROCK inhibitors; format: cell-based, human; conditions: Cytodex 1, 10 μM, passage 5
[7] = target: phosphatidylinositol 3 (PI3) kinase; conditions: cited from earlier work
[8] = system: P14 kinase, PKC, MAP kinase or c-Src; conditions: concentration of 50 μM; cited from earlier work
MLCK = MLCK (Homo sapiens, UniProt Q15746); conditions: cited from earlier work
MLCK, sequence (Q15746 whole entry): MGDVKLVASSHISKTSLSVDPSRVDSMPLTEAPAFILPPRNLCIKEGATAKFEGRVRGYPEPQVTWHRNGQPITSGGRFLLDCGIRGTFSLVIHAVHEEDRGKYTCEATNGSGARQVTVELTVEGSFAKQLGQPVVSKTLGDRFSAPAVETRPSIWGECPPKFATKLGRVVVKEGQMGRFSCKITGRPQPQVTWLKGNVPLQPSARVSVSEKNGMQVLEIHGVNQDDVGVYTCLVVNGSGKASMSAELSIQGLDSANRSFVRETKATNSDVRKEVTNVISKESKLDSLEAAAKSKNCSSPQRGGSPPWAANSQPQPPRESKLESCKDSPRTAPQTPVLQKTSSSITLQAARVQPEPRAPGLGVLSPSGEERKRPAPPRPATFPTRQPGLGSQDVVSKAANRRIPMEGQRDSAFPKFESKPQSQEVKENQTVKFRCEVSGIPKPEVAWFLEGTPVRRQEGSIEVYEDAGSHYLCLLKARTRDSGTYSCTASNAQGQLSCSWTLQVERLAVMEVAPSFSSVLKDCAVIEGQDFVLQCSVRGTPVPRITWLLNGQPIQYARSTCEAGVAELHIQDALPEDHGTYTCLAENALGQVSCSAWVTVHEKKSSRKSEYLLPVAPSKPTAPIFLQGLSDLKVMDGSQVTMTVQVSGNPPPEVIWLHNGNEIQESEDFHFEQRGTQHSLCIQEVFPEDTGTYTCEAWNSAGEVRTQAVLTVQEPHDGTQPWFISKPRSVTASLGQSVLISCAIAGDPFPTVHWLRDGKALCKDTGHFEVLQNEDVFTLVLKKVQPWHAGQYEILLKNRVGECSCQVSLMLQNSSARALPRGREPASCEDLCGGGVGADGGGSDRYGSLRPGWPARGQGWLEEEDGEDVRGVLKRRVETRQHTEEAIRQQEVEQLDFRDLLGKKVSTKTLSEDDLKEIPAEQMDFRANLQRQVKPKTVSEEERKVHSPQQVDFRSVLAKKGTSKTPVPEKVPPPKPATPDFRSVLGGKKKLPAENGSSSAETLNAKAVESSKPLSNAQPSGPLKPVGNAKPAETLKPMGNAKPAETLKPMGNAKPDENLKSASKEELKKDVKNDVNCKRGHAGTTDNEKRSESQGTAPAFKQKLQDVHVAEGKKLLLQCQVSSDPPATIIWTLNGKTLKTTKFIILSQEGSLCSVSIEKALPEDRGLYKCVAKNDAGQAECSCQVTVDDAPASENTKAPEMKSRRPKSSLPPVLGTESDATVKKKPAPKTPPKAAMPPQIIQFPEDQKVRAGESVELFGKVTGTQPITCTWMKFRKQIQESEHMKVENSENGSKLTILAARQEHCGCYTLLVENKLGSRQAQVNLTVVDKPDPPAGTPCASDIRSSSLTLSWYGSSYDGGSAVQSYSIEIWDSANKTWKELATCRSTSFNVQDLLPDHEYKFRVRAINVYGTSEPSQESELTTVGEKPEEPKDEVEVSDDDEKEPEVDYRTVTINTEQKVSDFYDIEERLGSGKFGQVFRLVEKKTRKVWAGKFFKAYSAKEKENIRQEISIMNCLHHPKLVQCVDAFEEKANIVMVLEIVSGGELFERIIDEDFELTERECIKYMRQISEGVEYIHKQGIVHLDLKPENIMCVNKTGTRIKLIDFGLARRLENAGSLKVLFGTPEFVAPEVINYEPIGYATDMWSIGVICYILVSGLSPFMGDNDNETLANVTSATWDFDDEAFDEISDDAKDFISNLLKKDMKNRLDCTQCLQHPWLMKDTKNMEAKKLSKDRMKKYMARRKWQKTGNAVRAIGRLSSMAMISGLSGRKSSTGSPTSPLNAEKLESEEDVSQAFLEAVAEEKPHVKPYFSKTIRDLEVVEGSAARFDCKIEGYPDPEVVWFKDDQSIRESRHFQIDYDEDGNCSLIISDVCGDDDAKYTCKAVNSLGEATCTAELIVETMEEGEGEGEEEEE

PKC = conditions: read-out: Ki PKC; cited from earlier work
PKCiota-Par6 interaction = target: T1, PKCiota-Par6 interaction (Homo sapiens, UniProt P41743); conditions: read-out: IC50 (PKCiota-Par6 interaction inhibitor); cited from earlier work
T1 sequence (P41743 10-122 limits assumed): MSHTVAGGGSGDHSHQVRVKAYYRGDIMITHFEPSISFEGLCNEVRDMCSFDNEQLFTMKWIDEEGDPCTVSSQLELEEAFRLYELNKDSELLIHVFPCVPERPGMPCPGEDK

[9] = 10 μM, daily continuous addition, after 9 weeks
[10] = single dose addition (10 μM), after 6 weeks (P6)

c1ccc2c(-c3ccncc3)c[nH]c2c1 [3-(4-Pyridyl)-1H-indole]
IC50 (Rho kinase (ROCK)): 25000 nM

O=S(=O)(c1cccc2cnccc12)N1CCCNCC1 [HA-1077]
expression of pluripotent marker Tra-1-60 (hESC (HES-2) [1]; [9]): about 80% | expression of pluripotent marker Oct4 (hESC (HES-2) [1]; [10]): 60% | expression of pluripotent marker Tra-1-60 (hESC (HES-2) [1]; [10]): about 80%

Cl.O=S(=O)(c1cccc2c(O)nccc12)N1CCCNCC1 [HA-1100]
expression of pluripotent marker Tra-1-60 (hESC (HES-2) [1]; [9]): about 80% | expression of pluripotent marker Oct4 (hESC (HES-2) [1]; [10]): 60% | expression of pluripotent marker Tra-1-60 (hESC (HES-2) [1]; [10]): ~50%

C[C@@H](N)[C@H]1CC[C@H](C(=O)Nc2ccncc2)CC1 [Y-27632, (R)-(+)-trans-N-(4-Pyridyl)-4-(1-aminoethyl)-cyclohexanecarboxamide.2HCl]
consecutive weeks of passaging hESC (hESC [2]; cellulose DE53 microcarriers, no Matrigel, 10 μM): 9 weeks | cell numbers (hESC [2]; cellulose and Tosoh microcarriers, no Matrigel, passage 5): 4 million/well | consecutive weeks of passaging hESC (hESC [2]; cellulose, Tosoh, Cytodex 1 and Cytodex 3 microcarriers, no Matrigel): five | consecutive weeks of passaging hESC (hESC [2]; spherical polylysine Tosoh 65 micron microcarriers, no Matrigel): six | expression of pluripotent markers Oct4 and mAb 84 (hESC [3]; Cytodex 1, Cytodex 3, cellulose and Tosoh microcarriers without Matrigel, passage 5): robust expression | expression of pluripotent markers Oct4, mAb 84 and Tra-1-60 (hESC [3]; DE53 without Matrigel, 9 weeks): still robust | expression of pluripotent markers Oct4 and mAb 84 (hESC [3]; DE53 without Matrigel, over 3 weeks): stable expression | expression of pluripotent markers Oct4 and Tra-1-60 (hESC [3]; Tosoh polylysine microcarriers without Matrigel, passage 4): strongly expressed | pluripotent marker expression (Tra-1-60) versus Matrigel control cultures (hESC (HES-2) [1]; Cytodex 1 and DE53 microcarriers, 10 μM): similar | expression of Tra-1-60 (FACS) (hESC (HES-2) [1]; DE53, 10 μM, passage 5): ~92% | expression of pluripotent marker Oct4 (hESC (HES-2) [1]; [10]): 60% | expression of pluripotent marker Tra-1-60 (hESC (HES-2) [1]; [10]): about 80% | cell density (iPS IMR90 cells [4]): stable over 12 passages | Oct4 and Tra-1-60 expression (iPS IMR90 cells [5]): stable over 12 passages | expression of Tra-1-60 (FACS) (hESC (HES-2) [6]): ~94%

O=c1cc(N2CCOCC2)oc2c(-c3ccccc3)cccc12 [LY294002]
IC50 [7]: 1400 nM | IC50 PI3 kinase activity [7]: 0.43 µg/mL (≈ 1.4 µM) | effect on PI3 kinase activity ([7]; concentration of 50 μM): specifically abolished PI3 kinase activity | inhibition of other lipid and protein kinases [8]: did not inhibit

O=C(Nc1ccncc1)Nc1c(Cl)cc(Cl)cc1Cl [N-(4-Pyridyl)-N′-(2,4,6-trichlorophenyl) urea]
IC50 (Rho kinase (ROCK)): 200 nM

Cc1cncc2cccc(S(=O)(=O)N3CCCNCC3C)c12 (stereo in doubt) [H-1152, (S)-(+)-2-Methyl-1-[(4-methyl-5-isoquinolinyl)sulfonyl]homopiperazine]
Ki (Rho kinase (ROCK)): 1.6 nM | Ki (MLCK): 10100 nM | Ki (PKC): 9270 nM

Aurothioglucose
passage successfully reached (hESC [2]; uncoated DE53): 4 passage | expression of pluripotent markers Oct4 and mAb 84 (hESC [3]; cellulose microcarriers without Matrigel, passage 0 and 1, compared to Matrigel control): stable expression | expression of pluripotency markers Oct4 and mAb84 (hESC [3]; uncoated DE53, through passage 4): continued strong expression | expression of pluripotent marker Oct4 (hESC (HES-2) [1]; [9]): ~50% | expression of pluripotent marker Tra-1-60 (hESC (HES-2) [1]; [9]): ~60% | expression of pluripotent marker Oct4 (hESC (HES-2) [1]; [10]): 60% | expression of pluripotent marker Tra-1-60 (hESC (HES-2) [1]; [10]): ~70% | IC50 (PKCiota-Par6 interaction): 1000 nM
